From US20150225454A1, “TETRABRANCHED PEPTIDES AND ANALOGUES AS A NEW CLASS OF ANTIMICROBIALS AND THEIR PREPARATION THEREOF” (priority 2012, published 2015)
Where a SMILES comes first, the peptide text is derived from it. Bridges are numbered along the chain shown (N, C = ends). Roman numbers before positions name the chains, in order.

Key:
C. albicans [1] = assay: microbe, parasite or virus in culture; format: cell-based
Experimental: The yeast strains were cultivated and suspended in Sabouraud's Dextrose (SD) broth diluted at one sixth at a starting OD600=˜0.08 in a flat-bottomed microtitre plate. A serial dilution of peptide in the same broth was mixed with the inoculum to give a final peptide concentration of 0.4-22 μM. The antifungal activity was assessed by monitoring the OD600 in cycles of 30 minutes and an orbital shaking at 100 rpm using an Infinite M200 microplate reader (Tecan Group Ltd., Switzerland) for 24/48 h at 37° C. Cultures without peptides were used as positive controls and broth alone or with 22 μM peptide served as negative controls. The minimum concentration required for complete inhibition was assessed by both visible observations as well as by measuring the OD600 and taken as the MIC. Each experiment was repeated in triplicates.

C. albicans [2] = assay: Cell viability assay under diS-C3-5 assay conditions; format: cell-based; conditions: concentration exceeding 4×MIC
Experimental: To verify if the dissipation of membrane potential is linked to candidacidal activity, a cell viability assay was performed under identical conditions.

C. albicans [3] = assay: diS-C3-5 membrane depolarisation assay; format: cell-based
Experimental: Change in membrane potential of C. albicans upon addition of B4010 was monitored by the release of potential sensitive probe diS-C3-5 dye. Briefly, 1 ml of overnight grown mid-log phase Candida cells in 5 mM HEPES buffer (pH 7.0) was mixed with 10 μM diS-C3-5 dye and incubated at 37° C. for 1-2 h in a thermo shaker. 800 μL of the dye-loaded cell suspension was transferred to a stirred quartz cuvette and the change in fluorescence intensity was monitored at an emission wavelength (λem) of 670 nm (excitation wavelength, 622 nm) using a Quanta Master spectrofluorimeter (Photon Technology International, NJ, USA). The excitation and emission bandwidths were set at 1 and 2 nm, respectively. Once a constant fluorescence level was achieved, 10 μL of concentrated peptide solution in HEPES buffer was added so that the final concentration of peptide was 0.22-22 μM. The change in fluorescence intensity was monitored continuously for 1 or 2 h. To study the effects of energy poisons and ion-channel inhibitors, the additives were added prior to the addition of 5.5 μM B4010. The change in fluorescence intensity was monitored as before.

C. albicans ATCC 10231 = assay: Antifungal activity after incubation with trypsin; format: cell-based; conditions: trypsin:peptide 1:100, 37° C., up to 6 h
Experimental: For all the experiments, unless otherwise stated, ATCC 10231 strain was used. B4010 (1 mg/ml) was incubated with trypsin (enzyme:peptide ratio 1:100) at 37° C. 20 μL aliquot of this mixture was withdrawn at various time intervals (0.5, 1, 2, 4 and 6 h) and mixed with 1 μL of trypsin inhibitor. The antifungal activity of the peptide was determined by adding this mixture to 180 μl of inoculum and monitoring the growth at OD600 for 24 h. Similar experiments performed in the presence of trypsin/trypsin inhibitor (without B4010) were used as a positive control. For assessing the antifungal activity in tear fluid (TF), the peptide was dissolved in freshly collected rabbit TF and incubated at 37° C. for 6 h. After incubation, an equal volume of an overnight culture of C. albicans (˜10^6 CFU/ml) was mixed with peptides in tear fluid and incubated at 37° C. for 24 h. The final concentrations of the peptide were at 4.4, 8.8 and 22 μM. A 100 μL aliquot of serial dilutions (10^2 or 10^3 times) of this mixture were inoculated on a SD agar plate and then incubated for 48 h at 37° C. Culture alone and culture with 50% tear fluid served as the positive control. […]
The peptide B4010 was incubated with trypsin (trypsin:peptide ratio=1:100) at 37° C. An aliquot of this mixture was withdrawn at various time intervals, added to the C. albicans inoculum and the growth was monitored (FIG. 3C).

C. albicans [4] = assay: Candidacidal activity (cell viability) in the presence of metal ions; format: cell-based; conditions: 5.5 μM
Experimental: To study the effects of metal ions on viability, the broth solution containing C. albicans (OD600=0.4-0.6) was adjusted to appropriate final concentrations of metal ions, incubated with 5.5 μM of B4010 for 6 h and the cell viability was determined as before after 48 h.

[5] = Acute in vivo toxicity in mice; set-up: species or system C57BL6 mice
Experimental: Acute toxicity of B4010 was assessed with C57BL6 (6-8 weeks old) wild type mice. Two healthy wild type mice were chosen for each route of administration. B4010 was delivered through intra-peritoneal (200 mg/kg) or (100 mg/kg) intra-venous routes. Two animals were used for each administration and monitored through 24/48 h to determine mortality, or signs of toxicity.

C. albicans ATCC10231 = assay: MIC in the presence of monovalent and divalent metal ions; format: cell-based
Experimental: For studying the effects of metal ions, SD broth was adjusted with appropriate concentrations of salts to yield a final concentration of 100 and 135 mM for NaCl and KCl and 0.5-2 mM for CaCl2 and MgCl2. MIC determinations were carried out as described above. C. albicans ATCC10231 cells and salts in broth were taken as a positive control. Salts alone (NaCl, KCl, and CaCl2 and MgCl2) in broth or with 22 μM peptide served as a negative control.

CC(C)[C@H](NC(=O)[C@H](CCCCN)NC(=O)[C@H](CCCNC(=N)N)NC(=O)CNC(=O)[C@@H](N)CCCNC(=N)N)C(=O)N[C@H](C(=O)N[C@@H](CCCNC(=N)N)C(=O)N[C@@H](CCCNC(=N)N)C(=O)NCCCC[C@H](NC(=O)[C@H](CCCNC(=N)N)NC(=O)[C@H](CCCNC(=N)N)NC(=O)[C@@H](NC(=O)[C@@H](NC(=O)[C@H](CCCCN)NC(=O)[C@H](CCCNC(=N)N)NC(=O)CNC(=O)[C@@H](N)CCCNC(=N)N)C(C)C)C(C)C)C(=O)NCCCC[C@H](NC(=O)[C@H](CCCCNC(=O)[C@H](CCCNC(=N)N)NC(=O)[C@H](CCCNC(=N)N)NC(=O)[C@@H](NC(=O)[C@@H](NC(=O)[C@H](CCCCN)NC(=O)[C@H](CCCNC(=N)N)NC(=O)CNC(=O)[C@@H](N)CCCNC(=N)N)C(C)C)C(C)C)NC(=O)[C@H](CCCNC(=N)N)NC(=O)[C@H](CCCNC(=N)N)NC(=O)[C@@H](NC(=O)[C@@H](NC(=O)[C@H](CCCCN)NC(=O)[C@H](CCCNC(=N)N)NC(=O)CNC(=O)[C@@H](N)CCCNC(=N)N)C(C)C)C(C)C)C(=O)N[C@@H](CCCCN)C(=O)O)C(C)C [Peptide B4010] (I: H-RGRKVVRRKKK-OH / II: H-RGRKVVRRK / III: H-RGRKVVRR / IV: H-RGRKVVRR; amide I:9-IV:C, I:10-II:C, II:9-III:C; N-terminus and C-terminus assumed)
MIC for two C. albicans clinical isolates (C. albicans [1]): 0.34 µM
MIC values, C. albicans (C. albicans [1]): 0.37 to 1.4 µM
decrease in MIC compared to the co-valent dimer (C. albicans [1]): 4-10 fold
activity superior to natamycin (C. albicans [1]; ATCC reference and clinical isolates): 2-4 times
cell viability (C. albicans [2]): complete loss of viability
reduction in fluorescence intensity in azide-treated cells compared to control cells (C. albicans [3]; 5 mM NaN3 before B4010): ~25 fold
time course of depolarization (C. albicans [3]; upon addition of B4010): occurred instantaneously
antifungal activity after trypsin incubation (C. albicans ATCC 10231): No loss of antifungal activity
candidacidal activity (C. albicans [4]; high concentration of KCl): slight decrease in the candidacidal activity
cell viability (C. albicans [4]; presence of monovalent and divalent cations): complete loss of viable cells
mortality, morbidity or toxicity ([5]; IP 200 mg/kg): no sign of mortality, morbidity or toxicity
mortality, morbidity or toxicity ([5]; IV 100 mg/kg): no sign of mortality, morbidity or toxicity
increase in MIC (C. albicans ATCC10231; 25 mM KCl): 8 fold
increase in MIC compared to medium without KCl (C. albicans ATCC10231; 100 mM KCl): > 16 fold
decrease in MIC (C. albicans ATCC10231; 135 mM NaCl): 2 fold
change in MIC (C. albicans ATCC10231; high concentration of Ca2+ and Mg2+ ions): two fold increase
increase in MIC (C. albicans ATCC10231; physiological concentrations of divalent cations): 2 fold
